Measured values as given in publication PMC11249953, “c-KIT inhibitors reduce pathology and improve behavior in the Tg(SwDI) model of Alzheimer’s disease” (Life Science Alliance, 2024).

How the values were obtained:
KIT (V559D) = target: T1, KIT (V559D) (Homo sapiens, UniProt P10721, V559D); assay: KINOMEscan competition binding, KIT (V559D); conditions: 10 µM compound; for remaining binding at 10 µM: lower = stronger binding, read-out: KIT (V559D) %Ctrl @ 10000nM (POC)
T1 construct: DNA label for qPCR read-out (T7 phage fusion or DNA tag); purchased Eurofins DiscoverX Corporation; host or cells: T7 phage in E. coli (BL21-derived) or HEK-293
Protocol: (§1) The KINOMEscan screening platform (Eurofins DiscoverX Corporation) was performed using active site-directed competition binding assay to quantitatively measure interactions between BK40143 and BK40197 and more than 450 human kinases and disease relevant mutant variants. […] Screening “hits” are identified by measuring the amount of kinase captured in test (BK40143 and BK40197) versus control samples by using a quantitative and ultra-sensitive qRT-PCR method that detects the associated DNA label. BK40143 and BK40197 were screened at 10 µM concentration, and results for primary screen binding interactions were reported as “% Ctrl” (POC), where lower numbers indicate stronger hits and calculated as follows: [test compound signal−positive control signal/negative control signal−positive control signal]×100
(§2) negative control = DMSO (100% Ctrl)
(§3) positive control = control compound (0% Ctrl)
(§4) Based on screening data from of profiled compounds, a proportional relationship between primary screening results and corresponding compound/target affinities can be described as binding constants (Kd values) for the indicated ranges of POC values with tighter binding (higher affinity) interactions associated with lower POC values and weaker binding (lower affinity) associated with higher POC values. Briefly, kinase-tagged T7 phage strains were grown in parallel in 24-well blocks in an E. coli host derived from the BL21 strain. E. coli were grown to log-phase and infected with T7 phage from a frozen stock (multiplicity of infection = 0.4) and incubated with shaking at 32°C until lysis (90–150 min). The lysates were centrifuged (6,000g) and filtered (0.2 μm) to remove cell debris. The remaining kinases were produced in HEK-293 cells and subsequently tagged with DNA for qRT-PCR detection. Streptavidin-coated magnetic beads were treated with biotinylated small molecule ligands for 30 min at RT to generate affinity resins for kinase assays. The liganded beads were blocked with excess biotin and washed with blocking buffer (1% BSA, 0.05% Tween 20, 1 mM DTT; SeaBlock [Pierce]) to remove unbound ligand and to reduce non-specific phage binding. Binding reactions were assembled by combining kinases, liganded affinity beads, and test compounds in 1x binding buffer (20% 0.17x PBS, 0.05% Tween 20, 6 mM DTT; SeaBlock). Test compounds were prepared as 100x stocks in 100% DMSO and directly diluted into the assay. All reactions were performed in polypropylene 384-well plates in a final volume of 0.02 ml. The assay plates were incubated at RT with shaking for 1 h and the affinity beads were washed with wash buffer (1x PBS, 0.05% Tween 20). […] The kinase concentration in the eluates was measured by qRT-PCR.

PIKFYVE = target: T2, PIKFYVE (Homo sapiens, UniProt Q9Y2I7); assay: KINOMEscan competition binding, PIKFYVE; conditions: 10 µM compound; for remaining binding at 10 µM: lower = stronger binding, read-out: PIKFYVE %Ctrl @ 10000nM (POC)
T2 construct: DNA label for qPCR read-out (T7 phage fusion or DNA tag); purchased Eurofins DiscoverX Corporation; host or cells: T7 phage in E. coli (BL21-derived) or HEK-293
Protocol: as §1, §2, §3, §4

TgAPP mice = assay: Novel object recognition, TgAPP mice; assay type: in vivo, mouse; conditions: BK40143 5 mg/kg, BK40197 45 mg/kg IP, 6 wk, vs DMSO
Protocol: Novel object recognition was carried out using a 50 × 50 cm arena with clear walls covered by brown construction paper. Mice were habituated to the room for 30 min each day, before being allowed to freely explore the arena for 5 min two times, for 3 d. On the 4th d, two identical objects were placed in the arena in opposite adjacent corners, 10 cm from the corner of the arena. Mice were placed along the wall opposite from the objects and allowed to freely explore for 10 min. Approach behavior (extending nose toward the object) toward both objects was recorded manually using handheld stop watches and compared with ensure there was no preference for either neutral object. For the probe trial, one object was removed and replaced with a novel object, and mice were again allowed to freely explore for 10 min, with approach time towards the novel and familiar objects recorded. Trials in which the mice explored for less than 1 s were excluded. Discrimination index was calculated by dividing time spent exploring the novel object by total time exploring both objects and was compared for treated versus control animals.

LCK = target: T3, LCK (Homo sapiens, UniProt P06239); assay: KINOMEscan competition binding, LCK; conditions: 10 µM compound; for remaining binding at 10 µM: lower = stronger binding, read-out: LCK %Ctrl @ 10000nM (POC)
T3 construct: DNA label for qPCR read-out (T7 phage fusion or DNA tag); purchased Eurofins DiscoverX Corporation; host or cells: T7 phage in E. coli (BL21-derived) or HEK-293
Protocol: as §1, §2, §3, §4

[1] = system: microglial PAR2-tryptase interactions in TgAPP mice; assay: Proximity ligation assay PAR2-tryptase; assay type: in vivo, mouse; conditions: vs DMSO
Protocol: Slides containing two consecutive brain slices were blocked in Duolink blocking solution for 1 h in a slide chamber containing water at 37°C. Blocking solution was then removed and PAR2 (1:250) and tryptase (1:250) primary antibodies were added at the concentrations specified above and incubated at 4°C overnight. The next day, primaries were removed and slides were washed twice for 5 min in wash buffer before addition of plus and minus probes for incubation at 37°C in a humid chamber for 1 h. Slides were then washed again twice for 5 min in wash buffer before addition of ligation buffer for incubation at 37°C in a humid chamber for 30 min. Next, slides were washed twice for 5 min in wash buffer, and polymerase was added for incubation at 37°C in a humid chamber for 100 min. Finally, slides were washed twice for 10 min in wash buffer and mounted using DAPI mounting medium and a glass coverslip. Slides were imaged on a Leica Dmi8 light microscope.

T2 sequence (Q9Y2I7 whole entry, the tested form may be a part): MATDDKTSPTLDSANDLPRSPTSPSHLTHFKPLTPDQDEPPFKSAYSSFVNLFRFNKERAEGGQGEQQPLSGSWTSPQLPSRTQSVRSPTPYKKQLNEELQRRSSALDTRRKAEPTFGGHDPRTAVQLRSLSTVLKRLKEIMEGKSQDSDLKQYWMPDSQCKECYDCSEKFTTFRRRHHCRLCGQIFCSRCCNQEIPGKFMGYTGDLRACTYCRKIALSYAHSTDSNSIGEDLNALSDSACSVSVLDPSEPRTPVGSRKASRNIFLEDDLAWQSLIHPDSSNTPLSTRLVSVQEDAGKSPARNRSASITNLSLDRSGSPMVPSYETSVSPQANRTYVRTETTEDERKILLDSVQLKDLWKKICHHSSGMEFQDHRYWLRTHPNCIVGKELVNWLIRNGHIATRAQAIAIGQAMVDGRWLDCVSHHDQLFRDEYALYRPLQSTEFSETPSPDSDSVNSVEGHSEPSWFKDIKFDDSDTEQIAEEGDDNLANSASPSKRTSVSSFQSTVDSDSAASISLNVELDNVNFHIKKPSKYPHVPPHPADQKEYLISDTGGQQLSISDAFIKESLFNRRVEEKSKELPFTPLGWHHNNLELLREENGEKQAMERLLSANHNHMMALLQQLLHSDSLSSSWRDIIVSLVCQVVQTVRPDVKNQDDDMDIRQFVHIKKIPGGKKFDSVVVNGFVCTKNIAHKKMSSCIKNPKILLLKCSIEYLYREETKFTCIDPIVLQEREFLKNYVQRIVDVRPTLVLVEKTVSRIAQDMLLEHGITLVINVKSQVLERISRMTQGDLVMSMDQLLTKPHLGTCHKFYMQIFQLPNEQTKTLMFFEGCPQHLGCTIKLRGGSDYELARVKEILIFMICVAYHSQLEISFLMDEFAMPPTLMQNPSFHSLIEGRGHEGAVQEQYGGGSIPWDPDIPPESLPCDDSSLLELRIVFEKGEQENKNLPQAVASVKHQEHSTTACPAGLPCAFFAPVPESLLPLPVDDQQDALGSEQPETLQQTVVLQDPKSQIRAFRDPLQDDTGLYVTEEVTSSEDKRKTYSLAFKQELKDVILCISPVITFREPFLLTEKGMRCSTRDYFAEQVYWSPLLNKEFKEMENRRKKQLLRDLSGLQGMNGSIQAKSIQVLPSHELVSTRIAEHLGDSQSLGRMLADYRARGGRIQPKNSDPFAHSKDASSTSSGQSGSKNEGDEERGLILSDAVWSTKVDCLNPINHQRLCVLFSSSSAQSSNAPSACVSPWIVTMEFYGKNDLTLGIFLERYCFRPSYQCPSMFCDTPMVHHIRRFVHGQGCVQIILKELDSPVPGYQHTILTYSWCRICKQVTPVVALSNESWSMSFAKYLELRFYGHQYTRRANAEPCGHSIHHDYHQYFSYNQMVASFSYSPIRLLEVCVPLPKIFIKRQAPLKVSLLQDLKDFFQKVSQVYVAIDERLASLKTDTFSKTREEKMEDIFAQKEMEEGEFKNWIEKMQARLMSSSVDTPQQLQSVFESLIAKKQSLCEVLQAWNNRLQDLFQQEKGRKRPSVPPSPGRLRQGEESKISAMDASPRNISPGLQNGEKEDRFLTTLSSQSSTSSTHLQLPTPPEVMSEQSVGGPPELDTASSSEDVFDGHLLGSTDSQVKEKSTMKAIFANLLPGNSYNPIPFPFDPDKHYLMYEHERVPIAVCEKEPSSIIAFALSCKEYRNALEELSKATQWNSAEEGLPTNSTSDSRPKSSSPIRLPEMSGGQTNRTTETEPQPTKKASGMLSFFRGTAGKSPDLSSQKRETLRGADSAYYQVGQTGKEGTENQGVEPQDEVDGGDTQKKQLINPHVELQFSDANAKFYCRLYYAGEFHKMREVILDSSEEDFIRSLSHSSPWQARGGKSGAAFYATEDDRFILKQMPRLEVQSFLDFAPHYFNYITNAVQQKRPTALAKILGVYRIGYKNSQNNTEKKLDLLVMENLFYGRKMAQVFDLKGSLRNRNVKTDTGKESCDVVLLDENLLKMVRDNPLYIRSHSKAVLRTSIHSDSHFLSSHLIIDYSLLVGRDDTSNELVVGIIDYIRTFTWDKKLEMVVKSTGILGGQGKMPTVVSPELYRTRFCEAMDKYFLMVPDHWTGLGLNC
T3 sequence (P06239 whole entry, the tested form may be a part): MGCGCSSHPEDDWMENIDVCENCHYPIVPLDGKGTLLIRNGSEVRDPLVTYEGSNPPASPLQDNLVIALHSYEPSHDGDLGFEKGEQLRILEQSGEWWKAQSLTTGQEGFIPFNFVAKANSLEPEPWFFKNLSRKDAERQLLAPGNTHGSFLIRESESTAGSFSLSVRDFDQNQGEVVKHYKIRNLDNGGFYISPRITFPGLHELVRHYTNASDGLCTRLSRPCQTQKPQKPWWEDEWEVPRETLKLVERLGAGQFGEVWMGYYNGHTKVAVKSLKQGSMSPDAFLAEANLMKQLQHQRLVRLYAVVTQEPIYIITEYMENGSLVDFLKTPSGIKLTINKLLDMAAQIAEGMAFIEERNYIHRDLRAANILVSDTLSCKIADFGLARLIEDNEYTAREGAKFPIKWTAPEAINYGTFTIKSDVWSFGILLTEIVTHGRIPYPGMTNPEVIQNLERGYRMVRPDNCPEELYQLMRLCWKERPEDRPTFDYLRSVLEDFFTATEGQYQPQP
T1 sequence (P10721 26-976 V559D): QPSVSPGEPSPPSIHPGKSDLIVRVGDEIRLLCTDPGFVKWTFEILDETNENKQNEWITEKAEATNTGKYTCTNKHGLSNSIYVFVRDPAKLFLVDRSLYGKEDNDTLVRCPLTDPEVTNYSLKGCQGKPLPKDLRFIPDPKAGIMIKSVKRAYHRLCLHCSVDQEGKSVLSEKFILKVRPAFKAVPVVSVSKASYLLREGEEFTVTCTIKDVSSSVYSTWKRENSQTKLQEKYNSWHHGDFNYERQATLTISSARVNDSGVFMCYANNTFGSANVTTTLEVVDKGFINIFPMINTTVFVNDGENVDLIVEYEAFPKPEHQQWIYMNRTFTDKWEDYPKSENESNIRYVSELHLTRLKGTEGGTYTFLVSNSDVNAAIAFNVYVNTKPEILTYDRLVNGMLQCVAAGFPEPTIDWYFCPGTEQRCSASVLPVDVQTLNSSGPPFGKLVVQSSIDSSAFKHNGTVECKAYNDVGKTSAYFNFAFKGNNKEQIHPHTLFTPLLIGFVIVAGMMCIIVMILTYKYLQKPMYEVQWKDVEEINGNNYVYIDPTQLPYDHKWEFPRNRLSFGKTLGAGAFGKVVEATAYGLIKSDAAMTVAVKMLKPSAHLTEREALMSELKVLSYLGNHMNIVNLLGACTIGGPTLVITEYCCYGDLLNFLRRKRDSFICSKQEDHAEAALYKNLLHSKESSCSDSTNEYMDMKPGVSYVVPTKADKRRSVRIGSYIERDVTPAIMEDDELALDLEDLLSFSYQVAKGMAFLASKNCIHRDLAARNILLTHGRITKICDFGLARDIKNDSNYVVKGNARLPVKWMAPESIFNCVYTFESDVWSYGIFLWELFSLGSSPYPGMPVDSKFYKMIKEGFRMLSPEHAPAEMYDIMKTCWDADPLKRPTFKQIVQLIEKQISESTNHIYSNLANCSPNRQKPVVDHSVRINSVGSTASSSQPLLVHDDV

Compound	inhibition at 10 µM (KIT (V559D))	remaining binding at 10 µM (KIT (V559D))	inhibition at 10 µM (PIKFYVE)	remaining binding at 10 µM (PIKFYVE)	novel object recognition: time exploring the novel object (TgAPP mice)	inhibition at 10 µM (LCK)	remaining binding at 10 µM (LCK)	mast cell tryptase / microglial PAR2-tryptase interactions (proximity ligation) [1]
Cc1cccc(-c2cc3nccc(Nc4ccccc4)c3s2)c1 [BK40143]	99.8%	0.25%	32%	68%	spent significantly greater amounts of time exploring the novel object	92.9%	7.1%	reduced mast cell mediators such as tryptase
Cc1cccc(-c2cc3nccc(N4CCOCC4)c3s2)c1 [BK40197]	99.7%	0.35%	99.6%	0.4%	spent significantly greater amounts of time exploring the novel object	9%	91%	reduced mast cell mediators such as tryptase
